US11446287B2, “Compounds and methods for EP300 or CBP modulation and indications therefor” (Opna Immuno-Oncology SA, priority 2019, dated 2022)

Molecular target: T1, Recombinant human CBP containing the bromodomain (CBP-BD (1043-1159)) (Homo sapiens, UniProt Q92793)
T1 construct: Recombinant human CBP bromodomain (CBP-BD (1043-1159)); made in house; host or cells: E. coli BL21-CodonPlus (DE3), modified pET vector
Experiment: CBP Alphascreen binding assay
Details: read-out: CREBBP (CBP) IC50
Procedure, shortened: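 Buffer: 50 mM HEPES pH 7.5, 50 mM NaCl, 0.01% BSA, 0.01% Triton X-100, 2 mM DTT. The signal was normalised to plate controls and fitted with a four-parameter curve to give IC50.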

T1 sequence (Q92793 1081-1197): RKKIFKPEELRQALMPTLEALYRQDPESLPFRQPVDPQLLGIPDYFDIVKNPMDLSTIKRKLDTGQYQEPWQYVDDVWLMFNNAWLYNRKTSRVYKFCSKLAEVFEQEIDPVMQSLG

For Cc1noc(C)c1-c1cnc2c(c1)c(-c1ccc(C(=O)O)cc1OC(C)C)cn2-c1cnc(N2CCC2)nc1 [P-0300, 4-(1-(2-(azetidin-1-yl)pyrimidin-5-yl)-5-(3,5-dimethylisoxazol-4-yl)-1H-pyrrolo[2,3-b]pyridin-3-yl)-3-isopropoxybenzoic acid], which IC50 is on record?
The IC50 was 0.1 to 1000 nM.

Cc1noc(C)c1-c1cnc2c(c1)c(-c1ccc(C(=O)O)cc1OC(C)C)cn2[C@H]1CCOC1 [P-0301, (S)-4-(5-(3,5-dimethylisoxazol-4-yl)-1-(tetrahydrofuran-3-yl)-1H-pyrrolo[2,3-b]pyridin-3-yl)-3-isopropoxybenzoic acid] was tested. Which IC50 did it give?
Its IC50 is 0.1 to 1000 nM.

Cc1noc(C)c1-c1cnc2c(c1)c(-c1ccc(S(C)(=O)=O)cc1OC(C)C)cn2-c1ccccc1 [P-0302, 4-(3-(2-isopropoxy-4-(methylsulfonyl)phenyl)-1-phenyl-1H-pyrrolo[2,3-b]pyridin-5-yl)-3,5-dimethylisoxazole] was tested. Which IC50 did it give?
The IC50 was 0.1 to 1000 nM.

For CCCn1nc(C(=O)O)c(N)c1-c1cn(-c2ccc(F)cc2F)c2ncc(-c3c(C)noc3C)cc12 [P-0303, 4-amino-5-(1-(2,4-difluorophenyl)-5-(3,5-dimethylisoxazol-4-yl)-1H-pyrrolo[2,3-b]pyridin-3-yl)-1-propyl-1H-pyrazole-3-carboxylic acid], which IC50 is on record?
Its IC50 is 0.1 to 1000 nM.

Which IC50 does the source give for CCCn1nc(C(=O)O)c(NCC)c1-c1cn(-c2ccc(F)cc2F)c2ncc(-c3c(C)noc3C)cc12 [P-0304, 5-(1-(2,4-difluorophenyl)-5-(3,5-dimethylisoxazol-4-yl)-1H-pyrrolo[2,3-b]pyridin-3-yl)-4-(ethylamino)-1-propyl-1H-pyrazole-3-carboxylic acid] here?
The IC50 was 0.1 to 1000 nM.

With Cc1nnn(C)c1-c1cnc2c(c1)c(-c1ccc(C(=O)O)cc1OC(F)(F)F)cn2CC/C=C/C1CC1 [P-0305, (E)-4-(1-(4-cyclopropylbut-3-en-1-yl)-5-(1,4-dimethyl-1H-1,2,3-triazol-5-yl)-1H-pyrrolo[2,3-b]pyridin-3-yl)-3-(trifluoromethoxy)benzoic acid] as the compound, how does the IC50 read?
Its IC50 is 0.1 to 1000 nM.

How did the IC50 turn out when Cc1noc(C)c1-c1cnc2c(c1)c(-c1ccc(C(=O)O)cc1OCC(F)F)cn2-c1ccncc1Cl [P-0306, 4-(1-(3-chloropyridin-4-yl)-5-(3,5-dimethylisoxazol-4-yl)-1H-pyrrolo[2,3-b]pyridin-3-yl)-3-(2,2-difluoroethoxy)benzoic acid] was run?
Its IC50 is 0.1 to 1000 nM.

How did the IC50 turn out when Cc1noc(C)c1-c1cnc2c(c1)c(-c1ccc(C(=O)O)cc1OC(F)(F)F)cn2-c1ccccc1Cl [P-0307, 4-(1-(2-chlorophenyl)-5-(3,5-dimethylisoxazol-4-yl)-1H-pyrrolo[2,3-b]pyridin-3-yl)-3-(trifluoromethoxy)benzoic acid] was run?
The IC50 was 0.1 to 1000 nM.

With Cc1noc(C)c1-c1cnc2c(c1)c(-c1ccc(C(=O)O)cc1OC(F)(F)F)cn2-c1ccccc1C1CC1 [P-0308, 4-(1-(2-cyclopropylphenyl)-5-(3,5-dimethylisoxazol-4-yl)-1H-pyrrolo[2,3-b]pyridin-3-yl)-3-(trifluoromethoxy)benzoic acid] as the compound, how does the IC50 read?
Its IC50 is 0.1 to 1000 nM.

For Cc1noc(C)c1-c1cnc2c(c1)c(-c1ccc(C(=O)O)cc1OC(F)(F)F)cn2-c1ccccc1C#N [P-0309, 4-(1-(2-cyanophenyl)-5-(3,5-dimethylisoxazol-4-yl)-1H-pyrrolo[2,3-b]pyridin-3-yl)-3-(trifluoromethoxy)benzoic acid], which IC50 is on record?
The IC50 was 0.1 to 1000 nM.

Cc1cc(C#N)ccc1-n1cc(-c2ccc(C(=O)O)cc2OC(F)(F)F)c2cc(-c3c(C)noc3C)cnc21 [P-0310, 4-(1-(4-cyano-2-methylphenyl)-5-(3,5-dimethylisoxazol-4-yl)-1H-pyrrolo[2,3-b]pyridin-3-yl)-3-(trifluoromethoxy)benzoic acid] was tested. Which IC50 did it give?
Its IC50 is 0.1 to 1000 nM.

For COc1ccc(-n2cc(-c3ccc(C(=O)O)cc3OC(F)(F)F)c3cc(-c4c(C)noc4C)cnc32)c(F)c1 [P-0311, 4-(5-(3,5-dimethylisoxazol-4-yl)-1-(2-fluoro-4-methoxyphenyl)-1H-pyrrolo[2,3-b]pyridin-3-yl)-3-(trifluoromethoxy)benzoic acid], which IC50 is on record?
The IC50 was 0.1 to 1000 nM.

Which IC50 does the source give for C=C(C)c1ccccc1-n1cc(-c2ccc(C(=O)O)cc2OC(F)(F)F)c2cc(-c3c(C)noc3C)cnc21 [P-0312, 4-(5-(3,5-dimethylisoxazol-4-yl)-1-(2-(prop-1-en-2-yl)phenyl)-1H-pyrrolo[2,3-b]pyridin-3-yl)-3-(trifluoromethoxy)benzoic acid] here?
Its IC50 is 0.1 to 1000 nM.

Which IC50 does the source give for Cc1noc(C)c1-c1cnc2c(c1)c(-c1ccc(C(=O)O)cc1OC(F)(F)F)cn2-c1ccc(C#N)cc1 [P-0313, 4-(1-(4-cyanophenyl)-5-(3,5-dimethylisoxazol-4-yl)-1H-pyrrolo[2,3-b]pyridin-3-yl)-3-(trifluoromethoxy)benzoic acid] here?
Its IC50 is 0.1 to 1000 nM.

With Cc1noc(C)c1-c1cnc2c(c1)c(-c1ccc(C(=O)O)cc1OC(F)(F)F)cn2-c1ccc(C(C)(C)O)cc1 [P-0314, 4-(5-(3,5-dimethylisoxazol-4-yl)-1-(4-(2-hydroxypropan-2-yl)phenyl)-1H-pyrrolo[2,3-b]pyridin-3-yl)-3-(trifluoromethoxy)benzoic acid] as the compound, how does the IC50 read?
Its IC50 is 0.1 to 1000 nM.

How did the IC50 turn out when Cc1noc(C)c1-c1cnc2c(c1)c(-c1ccc(C(=O)O)cc1OC(F)(F)F)cn2-c1ccsc1 [P-0315, 4-(5-(3,5-dimethylisoxazol-4-yl)-1-(thiophen-3-yl)-1H-pyrrolo[2,3-b]pyridin-3-yl)-3-(trifluoromethoxy)benzoic acid] was run?
The IC50 was 0.1 to 1000 nM.
